Assay results published in patent publication US9581586B2, “Approach to asthma inhaler compliance using breath measurement of tetrafluoroethane” (The Regents of the University of California, priority 2014, dated 2017).
Like-named read-outs stand apart in the source and are kept apart here.

Key:
[1] = Three compartment pharmacokinetic analysis of HFA elimination in breath after Flovent HFA; assay type: in vivo, human; settings: for half-life: human, exhaled breath, inhaled
Procedure: 24 hr, 36 hr, and 48 hr—post Flovent HFA administration (red and blue open circle). All sample collections were held open space. […] The calculated half-lives are 0.97, 20.7, and 442 minutes for subject #1 and 0.92, 27.6, and 355 minutes for subject #2.
As further disclosed in FIG. 5, the inventors re-defined the experiment and have performed a compartmental pharmacokinetic analysis of HFA elimination kinetics using HFA at 5 min, 7 min, 10 min, 15 min, 30 min, 1 hr, 2 hr, 3 hr, 4 hr, 6 hr, 8 hr, 12 hr. 24 hr, 36 hr, and 48 hr—post Flovent HFA administration. The HFA elimination could be modeled using three compartment pharmacokinetic analysis (Eq1). […] The elimination rate constant in each compartment, L1, L2, and L3, respectively are −0.1970, −0.0183, and −0.0013 for subject #1 and −0.1720, −0.0142, and −0.0018 for subject #2. The corresponding half-lives are 0.97, 20.7, and 442 minutes for subject #1 and 0.92, 27.6, and 355 minutes for subject #2.

[2] = Exhaled breath HFA-134a levels after asthma inhaler administration (GC with MSD); assay type: in vivo, human; settings: n=1, Flovent HFA one puff per day for nine days, last ICS approximately 24 hr before sampling
[3] = 500 ppm of HFA-134a for two hours; cited from earlier work
[4] = Exhaled breath HFA-134a levels after asthma inhaler administration (GC with MSD); assay type: in vivo, human
Procedure: Study participants were randomly assigned to inhaled corticosteroid (ICS, Flovent HFA, 220 mcg, n=5) or short acting bronchodilator (Albuterol, Proventil HFA, n=5). Baseline exhaled breath sampling and standard lung function test were performed prior to the medication dispersion. After baseline measurements, the participants inhaled two puffs of either Flovent HFA (Glaxo Smith Kline) or Proventil HFA (Merck & CO., INC) using a spacer (AeroChamberPlus Flow-Vu, Monaghan). Breath sampling and lung function test were performed immediately after inhalation (<5 min), and at 2, 4, 6, 8, 24, and 48 hours post administration (see FIG. 3).
Exhaled breath samples were collected in evacuated electro-polished stainless steel canisters (volume=1.9 L). The analytic system used in this study is similar to the system described in Colman et al., 2001 (18). Briefly, 790 mL of the collected air sample is pre-concentrated in a stainless steel loop filled with glass beads and submerged in liquid nitrogen to remove the nitrogen, oxygen and argon present in the sample. The sample is re-vaporized using hot water (at approximately 80° C.) and split into five different column/detector combinations housed in three gas chromatographs (GCs) using UHP helium as the carrier gas: (1) DB-1 column (J&W; 60 m, 0.32 mm I.D., 1 μm film thickness) output to a flame ionization detector (FID); (2) DB-5 column (J&W; 30 m, 0.25 mm I.D., 1 vim film thickness) connected in series to a RESTEK 1701 column (5 m, 0.25 mm I.D., 0.5 μm film thickness) and output to an electron capture detector (ECD); (3) RESTEK 1701 column (60 m, 0.25 mm I.D., 0.50 μm film thickness) output to an ECD; (4) PLOT column (J&W GS-Alumina; 30 m, 0.53 mm I.D.) connected in series to a DB-1 column (J&W; 5 m, 0.53 mm I.D., 1.5 μm film thickness) and output to an FID; (5) DB-5 ms column (J&W; 60 m, 0.25 mm I.D., 0.5 μm film thickness) output to a quadrupole mass spectrometer detector (MSD, HP 5973). The MSD is set to operate in selected ion monitoring (SIM) mode with one ion chosen to quantify each compound in order to achieve the maximum selectivity and to avoid potential interferences. All gas chromatographs and detectors used in this study are manufactured by Hewlett Packard. The analytical system allows for the identification and quantification of different classes of volatile organic compounds (VOCs). […] Simultaneously, room air samples were also collected in the same location to quantify corresponding ambient levels of HFA-134a.

[5] = in vivo; cited from earlier work
[6] = metabolite of HFA-134a, only in some urine samples at trace levels; cited from earlier work
[7] = Albuterol subject #3 (Proventil HFA)

Compound: FCC(F)(F)F [HFA-134a, 1,1,1,2-tetrafluoroethane]
- half-life ([1]; subject #1, read-out: Half-life corresponding to L1): 0.97 min
- half-life ([1]; subject #1, read-out: Half-life corresponding to L2): 20.7 min
- half-life ([1]; subject #1, read-out: Half-life corresponding to L3): 442 min
- half-life ([1]; subject #2, read-out: Half-life corresponding to L1): 0.92 min
- half-life ([1]; subject #2, read-out: Half-life corresponding to L2): 27.6 min
- half-life ([1]; subject #2, read-out: Half-life corresponding to L3): 355 min
- Elimination rate constant L1 ([1]; subject #1, post Flovent HFA): −0.1970 reciprocal minutes
- Elimination rate constant L2 ([1]; subject #1, post Flovent HFA): −0.0183 reciprocal minutes
- Elimination rate constant L3 ([1]; subject #1, post Flovent HFA): −0.0013 reciprocal minutes
- Elimination rate constant L1 ([1]; subject #2, post Flovent HFA): −0.1720 reciprocal minutes
- Elimination rate constant L2 ([1]; subject #2, post Flovent HFA): −0.0142 reciprocal minutes
- Elimination rate constant L3 ([1]; subject #2, post Flovent HFA): −0.0018 reciprocal minutes
- Baseline breath HFA level of symptomatic asthma subject on ICS [2]: 710 ppt
- Decrease of exhaled breath HFA-134a compared with HFA-134a in plasma when exposure stopped [3]: almost an order of magnitude faster
- Exhaled breath HFA-134a the day after the exposure [3]: not-detectable
- Exhaled HFA-134a levels at the 2-hr time point ([4]; 2 hr post inhaler administration, range over subjects): 28000-266000 pptv
- HFA concentration in breath at 48 hr post typical asthma inhaler administration ([4]; 48 hr post): still detectable
- Breath HFA-134a 48 hr post medication [4, 7]: 224 pptv
- Breath HFA-134a right after medication [4, 7]: 6.2 ppmv
- Breath HFA-134a at 48 hour time point ([4]; ICS subject #3 (Flovent HFA)): 287 pptv
- Breath HFA-134a right after drug administration ([4]; ICS subject #3 (Flovent HFA)): 179 ppmv
- Breath HFA-134a at 48 hour time point ([4]; ICS subject #4 (Flovent HFA)): 351 pptv
- Breath HFA-134a right after drug administration ([4]; ICS subject #4 (Flovent HFA)): 48 ppmv
- Time HFA can be measured in exhaled breath after a typical single inhalation ([4]; down to parts-per-trillion levels): at least 48 hours
- HFA-134a breath levels immediately after inhalation ([4]; healthy controls, Flovent HFA or Proventil HFA, immediately after inhalation): 300×10^6 pptv
- Time HFA is detectable above ambient levels following an inhalation ([4]; healthy participants): up to 24 hours
- Exhaled breath HFA-134a levels right after inhalation (range over subjects) ([4]; healthy participants, two puffs of asthma inhaler, right after inhalation): 3-300 ppmv
- Mean (SD) levels of HFA-134a in exhaled breath at 48-hr post inhaler administration ([4]; seven of ten healthy participants, 48 hr post): 260 (138) pptv
- Breath HFA-134a levels at 48 hours post inhaler administration ([4]; similar to room HFA-134a levels, also at baseline): approximately 200 pptv
- HFA-134a levels in blood samples [5]: below 10 % of the initially administered concentration

Compound: O=C(O)C(F)(F)F [trifluoroacetic acid]
- Trifluoroacetic acid detected in urine samples [6]: less than 0.0005 % of the administered dose
